# Measured values from patent publication US6673786B1, “Tryptase inhibitors” (Altana Pharma AG, priority 1999, dated 2004).
# Structures can show the parent of a compound that is named as a salt.
# Molecular target: human tryptase
# Experiment: Inhibition of human tryptase (apparent dissociation constant, chromogenic substrate tos-Gly-Pro-arg-pNA)
# Type: biochemical
# Conditions: apparent dissociation constant in presence of substrate; heparin 0.1-50 μg/ml; equilibrium conditions; read-out: Klapp
# Description: The documented pathophysiological effects of mast cell tryptase are caused directly by the enzymatic activity of the protease. Accordingly, they are reduced or blocked by inhibitors which inhibit the enzymatic activity of the tryptase. A suitable measure for the affinity of a reversible inhibitor to the target protease is the equilibrium dissociation constant Ki of the enzyme-inhibitor complex. This Ki value can be determined via the effect of the inhibitor on the tryptase-induced cleavage of a chromogenic peptide-p-nitroanilide substrate or a fluorogenic peptide-aminomethylcoumarin substrate.
# The dissociation constants for the tryptase-inhibitor complexes are determined under equilibrium conditions in accordance with the general proposals of Bieth (Bieth J G, Pathophysiological Interpretation of kinetic constants of protease inhibitors, Bull. Europ. Physiopath. Resp. 16:183-195, 1980) and the methods of Sommerhoff et al. (Sommerhoff C P et al., A Kazal-type inhibitor of human mast cell tryptase: Isolation from the medical leech Hirudo medicinalis, characterization, and sequence analysis, Biol. Chem. Hoppe-Seyler 375: 685-694, 1994).
# Human tryptase is isolated from lung tissue or prepared recombinantly; the specific activity of the protease, determined by titration, is usually greater than 85% of the theoretical value. In the presence of heparin (0.1-50 μg/ml) for stabilizing the protease, constant amounts of the tryptase are incubated with increasing amounts of the inhibitors. After an equilibrium between the reaction partners has formed, the remaining enzyme activity after addition of the peptide-p-nitroanilide substrate tos-Gly-Pro-arg-pNA is determined and the cleavage of the latter is monitored at 405 nm for 3 min. Alternatively, the remaining enzymatic activity can also be determined using fluorogenic substrates. The apparent dissociation constants Kiapp (i.e. in the presence of substrate) are subsequently determined by adapting the enzyme rates to the general equation for reversible inhibitors (Morrison J F, Kinetics of the reversible inhibition of enzymecatalyzed reactions by tight-binding inhibitors, Biochim. Biophys. Acta 185, 269-286, 1969) using non-linear regression:
# V1V0=1−{Et+It+Kiapp−[(Et+It+Kiapp)^2−4EtIt]^½}/2Et
# V1 and V0 are the rates in the presence and absence, respectively, of the inhibitor, and Et and It are the tryptase and inhibitor concentrations, respectively.
# The apparent dissociation constants determined for the compounds according to the invention are shown in Table A below, where the numbers of the compounds correspond to the numbers of the compounds in the examples.
row,Ki [nM],SMILES
1,0.8,"NCc1ccc(OCC(=O)N2CCN(C(=O)CN3CCC(=O)N(CC(=O)N4CCN(C(=O)COc5ccc(CN)cc5)CC4)CCC3=O)CC2)cc1 [Compound 4, 1,5-bis-{2-[4-(2-(4-Aminomethylphenoxy)acetyl)perazin-1-yl]-2-oxoethyl}perhydro-1.5-diazocin-2,6-dione Dihydrochloride]"
2,2.6,"NCc1ccc(CNC(=O)N2CCN(C(=O)CN3CCC(=O)N(CC(=O)N4CCN(C(=O)NCc5ccc(CN)cc5)CC4)CCC3=O)CC2)cc1 [Compound 1, 1,5-bis-{2-[4-(4-Aminomethylbenzylaminocarbonyl)piperazin-1-yl]-2-oxoethyl}perhydro-1,5-diazocin-2,6-dione Dihydrochloride]"
3,1.2,"NCc1ccc(CCC(=O)N2CCN(C(=O)CN3CCC(=O)N(CC(=O)N4CCN(C(=O)CCc5ccc(CN)cc5)CC4)CCC3=O)CC2)cc1 [Compound 2, 1,5-bis-{2-[4-(3-(4-aminomethylphenyl)proplonyl)piperazin-1-yl]-2-oxoethyl}perhydro-1,5-diazocin-2,6-dione Dihydrochloride]"
4,3.3,"NCc1cccc(CCC(=O)N2CCN(C(=O)CN3CCC(=O)N(CC(=O)N4CCN(C(=O)CCc5cccc(CN)c5)CC4)CCC3=O)CC2)c1 [Compound 3, 1,5-bis-{2-[4-(3-(3-aminomethylphenyl)proplonyl)piperazin-1-yl]-2-oxoethyl}perhydro-1,5-diazocin-2,6-dione Dihydrochloride]"
